{
  "source": "ChEMBL document CHEMBL3886569",
  "about": "“Substituted isoquinolines as CRTH2 receptor modulators” (2016)",
  "data": [
    {"target": "T1, Prostaglandin D2 receptor 2 (Homo sapiens, UniProt Q9Y5Y4)", "T1 sequence (Q9Y5Y4 whole entry)": "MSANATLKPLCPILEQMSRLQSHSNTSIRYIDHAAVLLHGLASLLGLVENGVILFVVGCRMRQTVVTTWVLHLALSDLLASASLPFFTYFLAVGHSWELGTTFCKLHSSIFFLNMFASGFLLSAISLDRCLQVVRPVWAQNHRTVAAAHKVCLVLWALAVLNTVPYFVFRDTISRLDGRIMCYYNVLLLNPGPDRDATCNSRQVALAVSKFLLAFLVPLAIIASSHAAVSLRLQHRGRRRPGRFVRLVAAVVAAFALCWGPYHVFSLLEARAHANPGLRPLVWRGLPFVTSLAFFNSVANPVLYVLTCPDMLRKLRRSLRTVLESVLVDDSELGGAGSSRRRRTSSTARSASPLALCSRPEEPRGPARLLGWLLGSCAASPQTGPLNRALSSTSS", "assay": "Radioligand Binding Assay: Radioligand binding was performed using filtration or scintillation proximity assay (SPA) technology. SPA assays were done at room temperature in 10 mM HEPES pH 7.4, 1 mM EDTA containing 2 mM MnCl2 and 16 nM [3H]-PGD2 (PerkinElmer, Waltham, Mass.) (164 Ci mmol-1), in a final volume of 0.05 mL. Competing ligands were diluted in dimethylsulfoxide and added using very low volumes (500 nL). The reaction was initiated by the addition of a mixture of 3.52 ug of membrane protein prepared from a human embryonic kidney (HEK)-hCRTH2 cell line adhered to 140 ug of wheatgerm agglutinin SPA beads (PerkinElmer). Total and non-specific binding were determined in the absence and the presence of a CRTH2 antagonist, respectively. The reaction was routinely conducted for 60 minutes at room temperature followed by centrifugation for 5 minutes at 1000 RPM. The radioactivity was measured with a TopCountNXT (PerkinElmer). Filtration binding assays were done in a similar way with minor differences. The assay volume was 0.20 mL and competing ligands in dimethylsulfoxide were added in 2 uL. [3H]-PGD2 was used at 0.6 nM, and reactions were initiated by the addition of 10 ug of membrane protein. Reactions were terminated by filtration through GF/C filter plates (PerkinElmer) presoaked in 10 mM HEPES. After washing with buffer, plates were dried in a 50° C. oven for 1 h, scintillation cocktail was added and radioactivity was measured. Results determined using the SPA-based assay were similar to those from the filtration binding assay.", "units": {"Ki": "nM"}, "values": [
      {"smiles": "O=C(O)CCCCc1cc2cc(-c3noc(C4Cc5ccccc5C4)n3)ccc2c(=O)n1-c1ccc(F)cc1", "Ki": 21.5},
      {"smiles": "O=C(CCCCc1cc2cc(C(=O)N[C@@H]3CCCc4cc(F)ccc43)ccc2c(=O)n1-c1ccc(F)cc1)NS(=O)(=O)C1CC1", "Ki": 10.9},
      {"smiles": "CC1(c2nc3ccc(F)cc3o2)CC(c2ccc3c(=O)n(-c4ccc(F)cc4)c(CCCCC(=O)O)cc3c2)=NO1", "note": "(stereo not given)", "Ki": 25.4},
      {"smiles": "O=C(O)CCCCc1cc2cc(-c3noc(Cc4ccc(F)cc4)n3)ccc2c(=O)n1-c1ccc(F)cc1", "Ki": 7.79},
      {"smiles": "CC1(c2nc3ccc(F)cc3o2)CC(c2ccc3c(=O)n(-c4ccc(F)cc4)c(CCCCC(=O)O)c(Cl)c3c2)=NO1", "note": "(stereo not given)", "Ki": 79.1}
    ]}
  ]
}
